The values below come from patent US12233161B1, “Lipids and lipid nanoparticle formulations” (LONGUIDE BIOPHARMA CORPORATION, priority 2024, dated 2025).

For one data set, the system named is mice. Description: In vivo delivery of FLuc-mRNA lipid nanoparticles in mice, in vivo imaging (IVIS). Conditions: for organ targeting specificity (spleen or lung), in words: Table 3, Fluc-mRNA, various formulations. The procedure, abridged:
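Mice (n=3) received about 75 μL FLuc-mRNA LNP per mouse intramuscularly (rectus femoris), intravenously (tail vein), intraperitoneally or subcutaneously (back). After injection, D-luciferin (200 μL, 15 mg/mL) was given i.p. 10-15 min before IVIS imaging.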

A short description of data set [1]: Particle size and PDI of nucleic acid lipid nanoparticle preparations by dynamic light scattering. The format is physicochemical. The procedure: The 7.5 μL nucleic acid lipid nanoparticle solution (containing approximately 0.04 mg/mL mRNA) was taken and added with 200 μL ultrapure water, mixed by gentle blowing using a pipette tip, and the particle size of the nanopreparation was detected by dynamic lightscattering (DLS) using a Malvern Dynamic Light Scattering Instrument (Malvern Instruments Ltd., ZEN3700, UK).
27.5 μL nucleic acid lipid nanoparticle solution (containing about 0.04 mg/mL mRNA) was taken and added with 200 μL ultrapure water. A pipette tip was used to gently blow the sample and mix well. The particle size of the nanopreparation was detected by Malvern Dynamic Light Scattering Instrument (Malvern Instruments Ltd., ZEN3700, UK). After the detection, the sample was recovered to an EP tube, and 600 μL of ultrapure water was added, gently blown with a pipette tip, and the potential of the nanopreparation was measured by a Malvern particle size meter.

[2] abbreviates: DMG-PEG2000:DSPC:Chol:Lipid 1.40:11.15:38.95:48.50, N/P 48, mRNA LNP.
The mark [3] stands for this setting: DMG-PEG2000:DSPC:Chol:Lipid 1.77:14.07:49.16:35.00, N/P 48, mRNA LNP.
Setting [4] is: DMG-PEG2000:DSPC:Chol:Lipid 1.40:11.15:38.95:48.50, N/P 30, mRNA LNP.
Where [5] appears, read: Fluc-mRNA LNP, route IM, 1 h (live), DSPE-PEG5000:DSPC:Chol:compound 1.40:11.15:38.95:48.50, N/P 30.
Where [6] appears, read: Fluc-mRNA LNP, route IM, 1 h (lung), DSPE-PEG5000:DSPC:Chol:compound 1.40:11.15:38.95:48.50, N/P 30.
Where [7] appears, read: Fluc-mRNA LNP, route IM, 1 h (spleen), DSPE-PEG5000:DSPC:Chol:compound 1.40:11.15:38.95:48.50, N/P 30.
Setting [8] is: Fluc-mRNA LNP, route IM, 2 h (live), DSPE-PEG5000:DSPC:Chol:compound 1.40:11.15:38.95:48.50, N/P 30.
Setting [9] is: Fluc-mRNA LNP, route IM, 2 h (lung), DSPE-PEG5000:DSPC:Chol:compound 1.40:11.15:38.95:48.50, N/P 30.
[10] abbreviates: Fluc-mRNA LNP, route IM, 2 h (spleen), DSPE-PEG5000:DSPC:Chol:compound 1.40:11.15:38.95:48.50, N/P 30.
Setting [11] is: Fluc-mRNA LNP, route IM, 3 h (live), DSPE-PEG5000:DSPC:Chol:compound 1.40:11.15:38.95:48.50, N/P 30.
The mark [12] stands for this setting: Fluc-mRNA LNP, route IM, 3 h (lung), DSPE-PEG5000:DSPC:Chol:compound 1.40:11.15:38.95:48.50, N/P 30.
Setting [13] is: Fluc-mRNA LNP, route IM, 3 h (spleen), DSPE-PEG5000:DSPC:Chol:compound 1.40:11.15:38.95:48.50, N/P 30.
Setting [14] is: Fluc-mRNA LNP, route IM, 6 h (live), DSPE-PEG5000:DSPC:Chol:compound 1.40:11.15:38.95:48.50, N/P 30.
The mark [15] stands for this setting: Fluc-mRNA LNP, route IM, 6 h (lung), DSPE-PEG5000:DSPC:Chol:compound 1.40:11.15:38.95:48.50, N/P 30.
[16] abbreviates: Fluc-mRNA LNP, route IM, 6 h (spleen), DSPE-PEG5000:DSPC:Chol:compound 1.40:11.15:38.95:48.50, N/P 30.
Setting [17] is: Fluc-mRNA LNP, route IM, organ not given, formulation, molar ratio and N/P as in the table.
Setting [18] is: Fluc-mRNA LNP, route IV, organ: body, formulation, molar ratio and N/P as in the table.
Where [19] appears, read: Fluc-mRNA LNP, route IV, organ: liver, formulation, molar ratio and N/P as in the table.
[20] abbreviates: Fluc-mRNA LNP, route IV, organ: lung, formulation, molar ratio and N/P as in the table.
The mark [21] stands for this setting: Fluc-mRNA LNP, route IV, organ: spleen, formulation, molar ratio and N/P as in the table.
Setting [22] is: Fluc-mRNA LNP, route IM, organ: liver, formulation, molar ratio and N/P as in the table.
Where [23] appears, read: Fluc-mRNA LNP, route IM, organ: lung, formulation, molar ratio and N/P as in the table.
The mark [24] stands for this setting: Fluc-mRNA LNP, route IM, organ: muscle, formulation, molar ratio and N/P as in the table.
The mark [25] stands for this setting: Fluc-mRNA LNP, route IM, organ: spleen, formulation, molar ratio and N/P as in the table.
The mark [26] stands for this setting: Fluc-mRNA LNP, route IV, organ not given, formulation, molar ratio and N/P as in the table.

For `CCCCCCOCOCCCCCCOC(=O)C(O)CN(CCCN(CC(O)C(=O)OCCCCCCOCOCCCCCC)CC(O)C(=O)OCCCCCCOCOCCCCCC)CCCN(CC(O)C(=O)OCCCCCCOCOCCCCCC)CC(O)C(=O)OCCCCCCOCOCCCCCC` (stereo not shown) [Compound L0270], the IVIS in the data set with mice (DMG-PEG2000:DSPC:Chol:Lipid 1.40:11.15:38.95:48.50, N/P 48, IM, whole body scan) was 2.09 × 10^7; in the data set on mice (DMG-PEG2000:DSPC:Chol:Lipid 1.40:11.15:38.95:48.50, N/P 48, IV, whole body scan) it was 1.56 × 10^9; in the data set on mice (DMG-PEG2000:DSPC:Chol:Lipid 1.77:14.07:49.16:35.00, N/P 48, IH, whole body scan) it was 2.89 × 10^6. In addition, the “in vivo delivery efficiency as compared to the benchmark compound SM102” value with mice (certain formulations, Table 2) is on record as “superior in vivo delivery efficiency”. The PDI came to 0.12 ± 0.00 in data set [1] (setting [2]) and 0.10 ± 0.03 in data set [1] (setting [3]). Besides, the Particle size was 131.00 ± 1.32 nm in data set [1] (setting [2]) and 144.83 ± 1.39 nm in data set [1] (setting [3]).

Take `CCCCCCCCCCCCOC(=O)C(O)CN(C)CCN(C)CCN(C)CC(O)C(=O)OCCCCCCCCCCCC` (stereo not shown) [Compound L0276]: the IVIS in the data set on mice (DMG-PEG2000:DSPC:Chol:Lipid 1.40:11.15:38.95:48.50, N/P 30, IM, whole body scan) was 1.81 × 10^6. Moreover, the IVIS in the data set with mice (DMG-PEG2000:DSPC:Chol:Lipid 1.40:11.15:38.95:48.50, N/P 30, IV, body (whole body scan)) is 1.60 × 10^5. In data set [1] (setting [4]), this compound yielded a PDI of 0.23 ± 0.02 and a Particle size of 98.58 ± 2.89 nm.

Turning to `CCCCCCC(CCCCCC)C(=O)OCCCCNC(=O)C(O)CN(CCN(C)CCN(CC(O)C(=O)NCCCCOC(=O)C(CCCCCC)CCCCCC)CC(O)C(=O)NCCCCOC(=O)C(CCCCCC)CCCCCC)CC(O)C(=O)NCCCCOC(=O)C(CCCCCC)CCCCCC` (stereo not shown) [Compound L0368], the “% of organ targeting” value in the data set on mice (setting [5]) is 39.42%; with mice (setting [6]), 5.12%; in the data set on mice (setting [7]), 42.92%; with mice (setting [8]), 70.91%; in the data set on mice (setting [9]), 1.59%; in the data set on mice (setting [10]) it was 26.79%. In addition, the “% of organ targeting” value in the data set with mice (setting [11]) was 51.88%; with mice (setting [12]), 1.77%; in the data set on mice (setting [13]), 27.68%; in the data set on mice (setting [14]) it was 52.87%; in the data set on mice (setting [15]), 1.75%; with mice (setting [16]), 42.92%. For the same compound, the figures for the “% of organ targeting” value with mice (setting [19]), with mice (setting [20]) and in the data set with mice (setting [21]) were 18.05%, 7.99% and 73.95%, respectively. The IVIS was 3.95E+05 in the data set on mice (setting [5]); 5.13E+04 in the data set on mice (setting [6]); 8.19E+07 in the data set on mice (Fluc-mRNA LNP, route IM, 1 h (muscle), DSPE-PEG5000:DSPC:Chol:compound 1.40:11.15:38.95:48.50, N/P 30); 4.30E+05 in the data set on mice (setting [7]); 6.97E+06 with mice (setting [8]); 1.57E+05 with mice (setting [9]). Besides, the IVIS was found to be 2.25E+08 in the data set on mice (Fluc-mRNA LNP, route IM, 2 h (muscle), DSPE-PEG5000:DSPC:Chol:compound 1.40:11.15:38.95:48.50, N/P 30); 2.64E+06 in the data set on mice (setting [10]); 5.57E+06 with mice (setting [11]); 1.89E+05 in the data set on mice (setting [12]); 5.02E+08 in the data set with mice (Fluc-mRNA LNP, route IM, 3 h (muscle), DSPE-PEG5000:DSPC:Chol:compound 1.40:11.15:38.95:48.50, N/P 30); 2.97E+06 in the data set with mice (setting [13]). Also, the IVIS in the data set with mice (setting [14]) was 1.53E+07; with mice (setting [15]), 5.04E+05; in the data set on mice (Fluc-mRNA LNP, route IM, 6 h (muscle), DSPE-PEG5000:DSPC:Chol:compound 1.40:11.15:38.95:48.50, N/P 30), 1.32E+08; in the data set with mice (setting [16]) it was 1.24E+07; in the data set with mice (setting [17]), 9.91E+07; in the data set on mice (setting [18]), 6.34E+07. Further, the IVIS turned out to be 1.00E+07 in the data set with mice (setting [19]), 4.43E+06 in the data set with mice (setting [20]) and 4.10E+07 in the data set on mice (setting [21]).

Turning to `CCCCCCC(CCCCCC)C(=O)NCCNC(=O)C(O)CN(CCCN(C)CCCN(CC(O)C(=O)NCCNC(=O)C(CCCCCC)CCCCCC)CC(O)C(=O)NCCNC(=O)C(CCCCCC)CCCCCC)CC(O)C(=O)NCCNC(=O)C(CCCCCC)CCCCCC` (stereo not shown) [Compound L0379], the “% of organ targeting” value with mice (setting [22]) stood at 35.55%; in the data set on mice (setting [23]) it was 3.16%; in the data set on mice (setting [25]), 61.28%. The IVIS in the data set with mice (setting [22]) stood at 1.37E+06; in the data set with mice (setting [23]), 1.22E+05; with mice (setting [24]), 2.68E+08; in the data set with mice (setting [25]), 2.37E+06; in the data set with mice (setting [26]), 1.63E+09. In the data set with mice, the “organ targeting specificity (spleen or lung), in words” value was “strong targeting specificity to deliver to spleen”.

Turning to `CCCCCCCCC(CCCCCC)C(=O)OCCCCCCNC(=O)C(O)CN(CCN(C)CCN(CC(O)C(=O)NCCCCCCOC(=O)C(CCCCCC)CCCCCCCC)CC(O)C(=O)NCCCCCCOC(=O)C(CCCCCC)CCCCCCCC)CC(O)C(=O)NCCCCCCOC(=O)C(CCCCCC)CCCCCCCC` (stereo not shown) [Compound L0371], the IVIS in the data set on mice (setting [17]) came to 3.02E+07; in the data set on mice (setting [18]), 1.98E+07; in the data set with mice (setting [19]) it was 2.58E+06; in the data set on mice (setting [20]) it was 2.62E+06; in the data set on mice (setting [21]) it was 2.64E+07. Also, the entries for the “% of organ targeting” value with mice (setting [19]), in the data set on mice (setting [20]) and in the data set with mice (setting [21]) were 8.16%, 8.29% and 83.54%, respectively.

Take `CCCCCCCCCCOC(=O)CCCNC(=O)C(O)CN(CCCN(CC(O)C(=O)NCCCC(=O)OCCCCCCCCCC)CC(O)C(=O)NCCCC(=O)OCCCCCCCCCC)CCCN(CC(O)C(=O)NCCCC(=O)OCCCCCCCCCC)CC(O)C(=O)NCCCC(=O)OCCCCCCCCCC` (stereo not shown) [Compound L0387]: the IVIS in the data set with mice (setting [17]) is 1.15E+05; with mice (setting [26]), 5.23E+05.

`CCCCCCCCC(CCCCCC)C(=O)OCCCCNC(=O)C(O)CN(CCCN(CC(O)C(=O)NCCCCOC(=O)C(CCCCCC)CCCCCCCC)CC(O)C(=O)NCCCCOC(=O)C(CCCCCC)CCCCCCCC)CCCN(CC(O)C(=O)NCCCCOC(=O)C(CCCCCC)CCCCCCCC)CC(O)C(=O)NCCCCOC(=O)C(CCCCCC)CCCCCCCC` (stereo not shown) [Compound L0378]: the “% of organ targeting” value in the data set with mice (setting [22]) came to 37.15%; in the data set with mice (setting [23]), 12.65%; in the data set on mice (setting [25]), 50.19%; in the data set on mice (setting [19]), 45.43%; in the data set with mice (setting [20]), 0.60%; in the data set with mice (setting [21]), 53.97%. Further, the IVIS in the data set with mice (setting [22]) worked out at 1.82E+05; in the data set with mice (setting [23]), 6.19E+04; in the data set on mice (setting [24]), 3.09E+07; with mice (setting [25]) it was 2.45E+05; in the data set on mice (setting [18]), 2.77E+08; in the data set with mice (setting [19]), 5.93E+07. In addition, the IVIS in the data set with mice (setting [20]) is listed as 7.82E+05; in the data set with mice (setting [21]), 7.04E+07. The “organ targeting specificity (spleen or lung), in words” value in the data set with mice is “strong targeting specificity to deliver to spleen”.
